# Measured values published in PMC5380659, “Unique charge-dependent constraint on collagen recognition by integrin α10β1” (Matrix Biology, 2017).
# Entries after “also recorded” stand apart in the source; their conditions may differ.
# Tests used:
# α2-Q215R I domain = assay: SPBA of α2-Q215R mutant I domain; assay type: binding, human; settings: Gln215 replaced with Arg, Fig. 8E
# Description: To test this hypothesis, we replaced the corresponding Q214 and Q215 in α1 and α2 I domains, respectively, with R, as in α10, and we replaced the R215 in the α10 I domain with Q, as in α1 and α2.
# (§1) Fig. 8 Arginine substitution of I domain surface reduces binding to Toolkit peptide III-4. Wild type I domain from α1, α2 and α10 were allowed to adhere to Toolkit peptide III-4 that contains GROGER, as described in Fig. 1, and binding is shown in A, B and C, respectively. In D and E, the natural glutamine residues of α1, Q214, and of α2, Q215, was replaced with arginine. In F, the natural arginine, R215, of α10 was replaced with glutamine.
# pGEX-2T-α1, α2 and α10 I were used to generate the Q to R or R to Q mutations using QuikChange PCR kit from Stratagene (200518).
# To express α2 wild type and mutant I domains, a 100-ml overnight culture of transformants (Origami strain) was used to inoculate 1 L of Luria broth containing 100 μg/ml ampicillin, 15 μg/ml Kanamycin and 12.5 μg/ml Tetracyclin. The culture was grown for 2 h at 37 °C and then induced at room temperature for 4 h with isopropyl β-D-thiogalactopyranoside (0.1 mM, Melford Laboratories, UK, #MB1008). […]
# I domain adhesion was determined colorimetrically, as described, here termed solid phase binding assay (SPBA). […]
# [1] = system: Other I domains that lack such a positive residue; assay: SPBA of I domains that lack the positive residue (wild type); assay type: binding, human; settings: I domains lacking a positive residue at position 215
# Description: as §1
# I domain adhesion was determined colorimetrically, as described, here termed solid phase binding assay (SPBA). Peptides were coated at 10 μg/ml for 1 h at 22 °C on Immulon-2 HB 96-well plates (Thermo Life Sciences, Basingstoke, UK), and blocked for 1 h with 200 μl of TBS containing 50 mg/ml bovine serum albumin. Wells were washed four times with 200 μl of the adhesion buffer (TBS with 1 mg/ml bovine serum albumin) before adding 100 μl of adhesion buffer containing 10 μg/ml of recombinant GST I domains in the presence of either 2 mM MgCl2 or EDTA for 1 h at room temperature. Wells were washed five times with 200 μl of adhesion buffer containing MgCl2 or EDTA, before adding 100 μl of adhesion buffer containing the anti-GST-HRP conjugate at 1:10,000 dilution for 1 h at room temperature. After washing, colour was developed using an ImmunoPure TMB Substrate Kit (Pierce) according to the manufacturer's instructions.
substance,measurement,setting,value
GROGER [short triple-helical peptide containing GROGER],Binding of α2-Q215R I domain,α2-Q215R I domain,impaired their binding; also recorded: failed to bind; also recorded: collapse of binding
same,Binding by other I domains,[1],bind GROGER well
